Assay results from publication PMC3131786 (Journal of Medicinal Chemistry, 2011).

How the values were obtained:
ATX = ATX activity fully restored upon washing out the inhibitor; cited from earlier work
recombinant ATX = recombinant ATX (Homo sapiens, UniProt Q13822); test: Choline release assay; type: biochemical; conditions: for residual ATX activity: at maximal inhibition in the dose-response curve (Figure S3)
[1] = cited from earlier work

## O=C1S/C(=C\c2ccc(OCc3ccc(B(O)O)cc3)cc2)C(=O)N1Cc1ccc(F)cc1 [inhibitor 1, (Z)-4-[(4-{[3-(4-Fluorobenzyl)-2,4-dioxo-1,3-thiazolan-5-yliden]methyl}phenoxy)methyl]benzene Boronic Acid]
ATX
  reversibility of binding to ATX: reversible

## O=C(Nc1ccc(B(O)O)cc1)c1ccc(/C=C2\SC(=O)N(Cc3ccc(F)cc3)C2=O)cc1 [inhibitor 17]
Recombinant ATX; Figure S2, n=5
  shape of dose-response curve: biphasic curve

## O=C(Nc1ccc(/C=C2\SC(=O)N(Cc3ccc(F)cc3)C2=O)cc1)c1ccc(B(O)O)cc1 [inhibitor 19]
Recombinant ATX
  residual ATX activity: 10%

## O=C1S/C(=C\c2ccc(NCc3ccc(B(O)O)cc3)cc2)C(=O)N1Cc1ccc(F)cc1 [inhibitor 36]
Recombinant ATX
  residual ATX activity: no residual ATX activity

## lysophosphatidic acid [LPA]
[1]
  half-life of LPA in vivo: ~5 min
